According to PMC5552351, “Bacteriological profiling of diphenylureas as a novel class of antibiotics against methicillin-resistant Staphylococcus aureus” (PLoS ONE, 2017):
≈ marks a conversion by molar mass, not a printed value.

Experiments:
[1] = system: S. epidermidis NRS101 biofilm; assay: biofilm mass disruption, crystal violet reporter assay; type: cell-based, Staphylococcus epidermidis; settings: even at 128 μg/mL, 24-hour treatment
Protocol: (§1) Compounds 1, 2, and vancomycin were examined for their ability to eradicate mature staphylococcal biofilm using the microtiter dish biofilm formation assay. S. epidermidis NRS101 and S. aureus ATCC 6538 were selected as the test organisms given their ability to form strong adherent biofilm. An overnight culture of bacteria was diluted (1:100 in TSB + 1% glucose) and transferred to a 96-well plate. The plate was incubated for 24 hours at 37 °C in order to form adherent biofilm on the surface of the plate wells. The medium containing the bacterial suspension was removed and the biofilm was washed with sterile PBS to remove planktonic cells. Compounds 1, 2, or vancomycin (from 128 to 1 μg/mL), in triplicate, in TSB were incubated with the biofilm for 24 hours at 37 °C.
(§2) Compounds were subsequently removed. The biofilm was washed with PBS and then stained with 1% (w/v) crystal violet for 40 minutes. The stain was removed and wells were washed with sterile PBS. Wells were next decolorized using 95% ethanol. The optical density of each well at 595 nm was measured using a microplate reader.

[2] = system: S. aureus ATCC 6538 biofilm; assay: as above; type: cell-based, Staphylococcus aureus; settings: all concentrations tested
Protocol: as §1, §2

S. aureus ATCC 6538 = assay: broth microdilution MIC; type: cell-based; settings: Staphylococcus aureus, ATCC6538; S. aureus ATCC 6538, biofilm-forming strain; read-out: MIC
Protocol: (§3) The broth microdilution assay was employed to determine the MIC of compounds 1, 2, and vancomycin against five MRSA strains, four VRSA strains, one highly mupirocin-resistant S. aureus strain, one biofilm-forming S. aureus (ATCC 6538) strain, and one biofilm-forming methicillin-resistant S. epidermidis strain, as per the guidelines of the Clinical and Laboratory Standards Institute (CLSI). […] The MBC was determined by plating an aliquot (5 μL) from wells with no growth onto TSA plates. Plates were incubated at 37 °C for 19 hours before recording the MBC (concentration where no growth was observed on TSA plates).

S. epidermidis NRS101 = assay: broth microdilution MIC; type: cell-based; settings: Staphylococcus epidermidis; S. epidermidis NRS101, biofilm-forming strain; read-out: MIC
Protocol: as §3

[3] = system: S. aureus ATCC 6538 biofilm; assay: bacterial CFU inside mature biofilm post-treatment; type: cell-based, Staphylococcus aureus; settings: 24 hours
Protocol: as §1
(§4) For enumeration of viable CFU inside the biofilm, compounds were removed, wells were washed with sterile PBS, and treated with 0.25% Trypsin-2.21 mM EDTA solution as described elsewhere. The solution containing cells was transferred to a 96-well plate, serially diluted in PBS, and plated on TSA. Plates were incubated at 37 °C for 19 hours before viable CFU were counted. Data are presented as average log10(CFU/mL) of bacteria present in the biofilm post-treatment.

[4] = aqueous solubility assessment (turbidity); type: physicochemical; settings: aqueous buffer, kinetic from dmso stock
Protocol: The solutions were diluted 100-fold into PBS in a 96-well plate and mixed. The absorbance of the PBS-containing plate was measured prior to addition of the test agents to determine the background absorbance. After two hours, the presence of precipitate was detected by turbidity (absorbance at 540 nm). […] The solubility limit is reported as the highest experimental concentration with no evidence of turbidity.

[5] = system: S. epidermidis NRS101 biofilm; assay: bacterial CFU inside mature biofilm post-treatment; type: cell-based, Staphylococcus epidermidis; settings: 24 hours
Protocol: as §1, §4

MRSA USA300 (NRS384) = assay: time-kill assay; type: cell-based, Staphylococcus aureus; settings: 4 × MIC; for reduction of MRSA CFU/mL: within two hours
VRS10 = assay: microbe, parasite or virus in culture; type: cell-based, Staphylococcus aureus; settings: VRS10, compound at ½ × MIC
Protocol: (§5) CAMHB was inoculated with strain VRS4 or strain VRS10 (5×10^5 CFU/mL), as described previously, with the following modifications. Aliquots ([…]) of the bacterial suspension were divided into micro-centrifuge tubes and compounds 1 or 2 (at ½ × MIC) were introduced into each tube. After 30 minutes of incubation at room temperature, samples from each tube were transferred to a new micro-centrifuge tube, prior to addition of vancomycin (at 128 μg/mL). Plates containing the test agents and bacteria were then incubated at 37 °C for 20–22 hours after which the MIC value was determined. A fold-reduction was calculated by comparing the MIC of vancomycin compared to the MIC of vancomycin given in combination with compounds 1 or 2 (at ½ × MIC).

Bacillus subtilis = assay: Bacterial Cytological Profiling (BCP); type: cell-based; settings: two hours, LB-MSM osmotically buffered media, 37 °C
Protocol: B. subtilis cells were grown in Luria Bertani (LB) medium at 37 °C until the optical density at 600 nm (OD600) was ~0.20. Cells were then left untreated or treated with compound 1 or control antibiotics in the presence of methylsulfonylmethane (MSM), as described previously. After two hours, cells were stained with FM 4−64 (1 μg/mL) to visualize cell membranes; DAPI (1 μg/ml) to visualize DNA, and SYTOX Green (1 μg/mL), a vital stain which is normally excluded from cells with an intact membrane but brightly stains cells that are lysed. Images were collected using a Delta Vision Spectris Deconvolution microscope, as described previously.

MRSA = system: MRSA; set-up: method as in PMID 28249208; settings: C. elegans; ref [21]; cited from earlier work
VRS4 = assay: microbe, parasite or virus in culture; type: cell-based, Staphylococcus aureus; settings: VRS4, compound at ½ × MIC
Protocol: as §5

SMILES	decrease in S. epidermidis biofilm mass [1]	change in optical density of S. aureus biofilm (biofilm mass) [2]	MIC (S. aureus ATCC 6538)	MIC (S. epidermidis NRS101)	reduction in bacterial CFU within S. aureus biofilm ([3]; 64 μg/mL)	reduction in bacterial CFU within S. aureus biofilm ([3]; 128 μg/mL)	solubility at 2 h [4]	reduction in bacterial CFU within S. epidermidis biofilm ([5]; 64 μg/mL)	reduction in bacterial CFU within S. epidermidis biofilm ([5]; 128 μg/mL)	reduction in bacterial CFU within S. epidermidis biofilm ([5]; 8, 16, and 32 μg/mL, vs untreated control)	time to completely eradicate a high inoculum of MRSA (~10^6 CFU/mL) (MRSA USA300 (NRS384))	reduction of MRSA CFU/mL (MRSA USA300 (NRS384))	Fold re-sensitization of VRSA to vancomycin (VRS10)	cytological profile (cell morphology) (Bacillus subtilis)	reduction in bacterial CFU within S. epidermidis biofilm ([5]; all concentrations tested (from 8 to 128 μg/mL))	reducing the burden of MRSA in infected worms (MRSA)	Fold re-sensitization of VRSA to vancomycin (VRS4)
C/C(=N\NC(=N)N)c1ccc(NC(=O)Nc2ccc(OCCC(C)C)cc2)cc1 [compound 1]	no decrease	no change	4 µg/mL (≈ 10.1 µM)	2 µg/mL (≈ 5.04 µM)	0.9 log10	3.0 log10	23.9 µg/mL (≈ 60.4 µM)	1.0 log10	2.84 log10	no reduction	within four hours	3 log10	3-fold	cell shape defects	–	–	–
C/C(=N\NC(=N)N)c1ccc(NC(=O)Nc2ccc(OC3CCCCCC3)cc2)cc1 [compound 2]	no decrease	no change	8 µg/mL (≈ 18.9 µM)	4 µg/mL (≈ 9.47 µM)	0.8 log10	1.76 log10	5.15 µg/mL (≈ 12.2 µM)	–	–	–	within four hours	3 log10	–	–	unable to reduce	superior to vancomycin	7-fold
